According to patent US20190071416A1, “COMPOUNDS FOR TREATMENT OF CANCER AND EPIGENETICS” (Agency For Science, Technology and Research, priority 2015, published 2019):
pIC50: −log10 of the molar value. Read-outs that look alike come from different tables or passages of the source. One block for each molecule: values may come before it.

Legend:
[1] = target: T1, SMYD3 (Homo sapiens, UniProt Q9H7B4); settings: assay reported in the publication; cited from earlier work
T1 sequence (Q9H7B4 1-428): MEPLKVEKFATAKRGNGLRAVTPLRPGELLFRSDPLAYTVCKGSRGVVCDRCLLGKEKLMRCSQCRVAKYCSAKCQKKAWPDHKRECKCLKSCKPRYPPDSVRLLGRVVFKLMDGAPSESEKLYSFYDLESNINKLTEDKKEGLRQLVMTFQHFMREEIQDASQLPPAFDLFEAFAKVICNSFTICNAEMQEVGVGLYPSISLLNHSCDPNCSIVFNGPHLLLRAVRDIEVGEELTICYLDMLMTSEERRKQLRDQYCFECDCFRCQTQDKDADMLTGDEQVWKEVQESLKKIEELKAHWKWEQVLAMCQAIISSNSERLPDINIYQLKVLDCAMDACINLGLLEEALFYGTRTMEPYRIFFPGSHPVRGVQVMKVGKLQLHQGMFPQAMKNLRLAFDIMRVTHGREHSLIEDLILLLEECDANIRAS

[2] = target: T1, SMYD3; assay: SMYD3 biochemical assay (MTase-Glo, MAP3K2 peptide substrate)
Method in brief: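 Methylation of MAP3K2 peptide (10 µM final) with SAM (1.0 µM final) by SMYD3, 30 min at room temperature. SAH formed was enzymatically converted to ATP and detected as luminescence with MTase-Glo reagents; IC50 by non-linear regression.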

[3] = Human liver microsomes stability test; format: in vitro ADME
[4] = Mouse liver microsomes stability test; format: in vitro ADME
[5] = target: T1, SMYD3; assay: Target engagement assay, SMYD3 levels by Western blot in HEK293 cells transfected with Myc-SMYD3; format: cell-based; set-up: host or cells: HEK293 (ATCC); settings: compared to B019
Experimental: The target engagement assay was performed with HEK293 that is engineered to overexpress SMYD3 (HEK293-SMYD3). The plasmid SMYD3 (Myc-DDK-tagged-Human SET and MYND domain containing 3) was purchased from Origene (RC230064) and transfected with lipofectamine 2000 (Invitrogen) into HEK293 (ATCC). The cell line is cultured in Eagle's MEM media supplemented with fetal bovine serum and geneticin (Invitrogen). Presence of over-expressed SMYD3 is confirmed with western blot with antibody against SMYD3 and the MYC tag as well as with RT-PCR with SMYD3 primers.
(§1) The cells were seeded in 6 well plates. After seeding for 24 h, the cells were treated with either DMSO or 25 μM compound and incubated for 24 hr. The cells were trypsinized and the lysate was extracted with RIPA buffer (Santa Cruz). The total protein concentration of lysate is quantified using the standard Bradford assay (Biorad protein assay, microplate standard assay).
Western blot analysis was performed using antibody against SMYD3 in HEK293 cells over-expressing SMYD3 (HEK293-SMYD3) treated with compound at different time points. 15.0 μg of cell lysate was diluted in 2× Laemmli sample buffer (Bio-Rad) and boiled at 100° C. on heat block for 5 min. Lysates were separated using NuPAGE® 4-12% Bis-Tris precast polyacrylamide gels (Lifetech) at 200 V, […] for 40 min. […]

[6] = test system: HepG2; assay: Cell proliferation assay (CellTiter-Glo), HepG2; format: cell-based; settings: Homo sapiens, HepG2, 72 h; 3 days
Experimental: (§2) The cell proliferation assays were tested in several cell lines, including HepG2,HCT116, A549, HPAF-II, CFPAC-1,HuH7, SNU398,Hep3B, and HEK293. All cell lines are from ATCC. HepG2, HPAF-II and HEK293 are cultured in Eagle's MEM media supplemented with fetal bovine serum. HCT116 is cultured in McCoy media supplemented with fetal bovine serum. Huh-7 is cultured in DMEM low glucose (1000 mg/L glucose) with 10% FBS, 1% L-Glutamate and 1% Penicillin/Streptomycin. SNU398 is cultured in RPMI with 10% FBS with 1% L-Glutamate and 1% Penicillin/Streptomycin. Hep3B is cultured in Eagle's MEM with 10% FBS, 1% L-Glutamate and 1% Penicillin/Streptomycin. A549 is cultured in RPMI media supplemented with fetal bovine serum while CFPAC-1 is cultured in IMDM media supplemented with fetal bovine serum. All media and serum are purchased from Gibco (Lifetech). All cells were grown in a temperature controlled incubator at 37° C. and 5% CO2.
(§3) Cell proliferation assay was performed using CellTiter-Glo Luminescent Cell Viability Assay (Promega) following manufacturer's instructions. The cell-line of interest was treated with compounds that were serial diluted in its respective media. Plates were incubated for 3 days at 37° C. in 5% CO2. After 3 days, an equal volume of Cell Titer Glo reagent was added. Plates were rocked on a rotator for 2 h. 100 μL of each well were transferred to a 96-well opaque plate, and luminescence emitted was measured with the Tecan Safire II.

[7] = test system: HPAF-II; assay: Cell proliferation assay (CellTiter-Glo), HPAF-II; format: cell-based; settings: Homo sapiens, 72 h, 3 days
Experimental: as §2, §3

[8] = test system: CFPAC-1; assay: Cell proliferation assay (CellTiter-Glo), CFPAC-1; format: cell-based; settings: Homo sapiens, CFPAC-1, 72 h; 3 days
Experimental: as §2, §3

[9] = test system: HCT-116; assay: Cell proliferation assay (CellTiter-Glo), HCT-116; format: cell-based; settings: Homo sapiens, HCT-116, 72 h; 3 days
Experimental: as §2, §3

[10] = test system: A549; assay: Cell proliferation assay (CellTiter-Glo), A549; format: cell-based; settings: Homo sapiens, A549, 72 h; 3 days
Experimental: as §2, §3

[11] = test system: Hep G2 cells; assay: Soft agar colony formation assay; format: cell-based, human; settings: Homo sapiens, HepG2
Experimental: Hep G2 cells were purchased from ATCC. Hep G2 cells were maintained in Eagle's Minimum Essential Medium (Sigma, Cat No: #M0643) supplemented with 10% Fetal Bovine Serum (Hyclone, Cat No: SV30087.03), 2 mM L-glutamine, 100 units/mL penicillin and 100 μg/mL streptomycin (Life Technologies, Cat No: 10378-016). The soft agar assays were performed in concordance to the ETC approved method report for soft agar assay (ETC document number: RD0019). Briefly, 600 μL of 0.6% agar was added to 24-well plate (Corning, Cat No: 3738) to form the base layer. This is followed by the addition of 500 μL of 0.36% agar middle layer (containing 10′000Hep G2 cells). Lastly, 500 μL of fresh growth medium (containing the corresponding serially diluted compound) was added above the middle layer. The plates were incubated at 37° C. with 5% carbon dioxide in a humidified incubator for 1 to 2 weeks. 70 μL of thiazolyl blue tetrazolium bromide (5 mg/mL, Sigma Cat No: M5655) was added to each well and the plates were incubated at 37° C. for 2 h. Colonies were counted with GelCount® instrument (Oxford Optronix). The colony counts were plotted against compound concentrations using the Graphpad Prism software. In addition, the software was used to perform non-linear curve fitting and the calculation of IC50.

[12] = test system: MAP3K2 methylation (me2/me3-Lys 260); assay: SMYD3 mediated methylation of MAP3K2 in HEK293 cells (Western blot); format: cell-based, Human; settings: 25 μM
Experimental: as §1
Western blot analysis for detecting methylated MAP3K2 was carried out using a customized Anti-me2/me3-Lys 260 MAP3K2 at 1:500 and the total MAP3K2 was detected using Anti-MEKK2 (AB33918) using a 1:10,000 dilution.
B019 was further tested for its ability to inhibit SMYD3 in cells through its effects on cellular MAP3K2 methylation. This was performed using an antibody against the MAP3K2 (me2/me3), Anti-ME2/ME3-K260-MAP3K2 (1:500) and total MAP3K2, Anti-MEKK2 #ab33918 (1:10,000).

[13] = target: ubiquitin specific protease 7 (Homo sapiens, UniProt Q93009); settings: cited from earlier work
[14] = Table 1, MAP3K2 peptide as substrate, read-out: IC50
[15] = Table 2, read-out: Biochemical assay IC50
[16] = Table 3, MTase assay, MAP3K2 peptide substrate, read-out: IC50
[17] = Table 4, prior art compounds, read-out: IC50

Chain of ubiquitin specific protease 7 (Q93009 whole entry): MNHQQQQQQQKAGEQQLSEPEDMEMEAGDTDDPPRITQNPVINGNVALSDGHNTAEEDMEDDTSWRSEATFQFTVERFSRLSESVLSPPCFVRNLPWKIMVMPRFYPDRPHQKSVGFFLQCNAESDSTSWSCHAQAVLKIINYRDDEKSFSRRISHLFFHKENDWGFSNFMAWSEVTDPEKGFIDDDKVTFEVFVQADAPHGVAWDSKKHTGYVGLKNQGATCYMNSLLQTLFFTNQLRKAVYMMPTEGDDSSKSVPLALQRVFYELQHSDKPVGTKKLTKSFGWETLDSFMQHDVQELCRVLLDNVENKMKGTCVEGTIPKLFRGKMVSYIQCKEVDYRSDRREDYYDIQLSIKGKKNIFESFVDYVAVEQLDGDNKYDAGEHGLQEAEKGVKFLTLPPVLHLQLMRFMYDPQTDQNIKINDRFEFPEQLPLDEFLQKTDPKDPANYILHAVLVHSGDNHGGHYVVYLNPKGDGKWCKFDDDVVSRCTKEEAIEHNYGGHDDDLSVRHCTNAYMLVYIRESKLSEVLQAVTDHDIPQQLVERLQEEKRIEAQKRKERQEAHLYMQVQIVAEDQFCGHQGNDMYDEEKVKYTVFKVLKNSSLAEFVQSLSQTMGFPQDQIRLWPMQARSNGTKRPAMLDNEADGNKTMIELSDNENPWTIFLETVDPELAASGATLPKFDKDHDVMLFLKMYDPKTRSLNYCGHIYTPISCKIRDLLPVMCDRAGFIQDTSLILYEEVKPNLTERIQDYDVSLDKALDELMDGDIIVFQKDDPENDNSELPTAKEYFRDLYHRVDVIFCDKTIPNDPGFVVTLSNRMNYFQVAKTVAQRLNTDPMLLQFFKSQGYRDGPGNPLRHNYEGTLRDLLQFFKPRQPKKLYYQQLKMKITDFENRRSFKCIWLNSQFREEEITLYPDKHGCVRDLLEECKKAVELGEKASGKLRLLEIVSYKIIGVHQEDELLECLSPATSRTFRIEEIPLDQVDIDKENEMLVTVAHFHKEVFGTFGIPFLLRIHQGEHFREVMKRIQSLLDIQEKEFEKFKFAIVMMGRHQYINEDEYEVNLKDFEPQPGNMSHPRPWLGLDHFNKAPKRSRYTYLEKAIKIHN

- pIC50 ([2]; read-out: active against SMYD3): 5.21
- half-life ([3]; read-out: half-life, t1/2): 9 min
- half-life ([4]; read-out: half-life, t1/2): 4 min
Compound: CCOC(=O)N1CCN(C(=O)c2ccc3c(Cl)c4c(nc3c2)CCCC4)CC1 [X4, ethyl 4-(9-chloro-5,6,7,8-tetrahydroacridine-3-carbonyl)piperazine-1-carboxylate, reference compound]
- inhibition of methylation of MAP3K2 in cells [12]: unable to inhibit

- activity against SMYD3 [2]: not active
- pIC50 [2, 17]: 3.12
Compound: CN1CCC(N2CCN(C(=O)c3ccc4c(Cl)c5c(nc4c3)CCCC5)CC2)CC1 [X3, reference compound]
- activity against ubiquitin specific protease 7 [13]: act against

- activity against SMYD3 [2]: not active
- pIC50 [2, 17]: 3.12
Compound: Cc1cccc(CN2CCC(CNC(=O)c3ccc4c(Cl)c5c(nc4c3)CCCC5)CC2)c1 [X2, reference compound]
- activity against ubiquitin specific protease 7 [13]: act against

The remaining lines, values behind:

Compound: O=C1Cc2cc(C(=O)N[C@H]3C[C@H]4CC[C@@H](C3)N4S(=O)(=O)CC3CCN(CCCC(F)(F)F)CC3)c(Cl)cc2N1 [X5]
- active against SMYD3 [1]: 3 nM

Compound: CCOC(=O)N1CCN(C(=O)c2ccc3c(Cl)c4c(nc3c2)CCCC4)CC1 [ethyl 4-(9-chloro-5,6,7,8-tetrahydroacridine-3-carbonyl)piperazine-1-carboxylate]
- activity against SMYD3 [2]: moderately active
- metabolic stability ([3]; high metabolic clearance): poor
- metabolic stability ([4]; high metabolic clearance): poor
- target engagement [5]: poor

Compound: CCCOC(=O)N1CCN(C(=O)c2ccc3c(Cl)c4c(nc3c2)CC(CCN)CC4)[C@@H](C)C1 (stereo partly drawn) [A088, Propyl (3S)-4-(6-(2-aminoethyl)-9-chloro-5,6,7,8-tetrahydroacridine-3-carbonyl)-3-methylpiperazine-1-carboxylate]
- pIC50 [2, 14]: 7.04
- pIC50 [2, 15]: 7.04
- pIC50 [2, 16]: 7.05
- GI50 [6]: 17.1 µM
- GI50 [7]: 33.7 µM
- GI50 [8]: 21.9 µM
- GI50 [9]: 16.1 µM
- GI50 [10]: 28.4 µM

Compound: CCCOC(=O)N1CCN(C(=O)c2ccc3c(Cl)c4c(nc3c2)CC(c2ccccn2)CC4)C[C@H]1C (stereo partly drawn) [A074, Propyl (2R)-4-(9-chloro-6-(pyridin-2-yl)-5,6,7,8-tetrahydroacridine-3-carbonyl)-2-methylpiperazine-1-carboxylate]
- pIC50 [2, 14]: 6.82
- pIC50 [2, 15]: 6.82
- pIC50 [2, 16]: 6.82
- GI50 [6]: 10.7 µM
- GI50 [7]: 50.4 µM
- GI50 [8]: 36.9 µM
- GI50 [9]: 11.4 µM
- GI50 [10]: 15.8 µM
- pIC50 ([11]; Hep G2, soft agar): 6.15
- inhibition at 10 µM ([11]; highest concentration tested (10 μM)): ~100%

Compound: CCCOC(=O)N1CCN(C(=O)c2ccc3c(Cl)c4c(nc3c2)CCC(CCN)C4)CC1 (centres unmarked) [A066, Propyl 4-(7-(2-aminoethyl)-9-chloro-5,6,7,8-tetrahydroacridine-3-carbonyl)piperazine-1-carboxylate]
- pIC50 [2, 14]: 7.34
- pIC50 [2, 15]: 7.34
- pIC50 [2, 16]: 6.52
- GI50 [6]: 33.1 µM
- GI50 [7]: 11.1 µM
- GI50 [8]: 15.3 µM
- GI50 [9]: 24.9 µM
- GI50 [10]: 18.4 µM
